Test results reported in patent publication US20020102533A1, “Hepatitis C protease exosite for inhibit or design” (priority 2000, published 2002).
Where a SMILES comes first, the peptide text is derived from it. Where no end group is shown, it is not given here. [ ]: non-standard residue; d: D form. The star is where a group is joined. Dip = N[C@H](C(=O)O)C(c1ccccc1)c1ccccc1; X1 = C=CCC(N*)B1OC2CC3CC(C3(C)C)C2(C)O1; Cha = N[C@@H](CC1CCCCC1)C(=O)O; AlgCF2CF3 = not defined here; Abu = CC[C@H](N)C(=O)O

What was measured:
[1] = target: T1, HCV NS3 protease, genotype 1a (Hepatitis C virus genotype 1a, UniProt P26664); experiment: biochemical; format: biochemical; settings: for (S = P6-P3′) Inhibition(+) / Activation (−): substrate A
T1 construct: NS3 protease catalytic domain (amino acids 1 to 192); MGAQH expression leader (5 aa), or alternatively the 15 aa His tag […]; made in house; host or cells: E. coli BL21 (DE3)
Protocol: (§1) Endpoint HPLC based HCV protease assay: HCV protease (5 nM) was incubated in 50 mM Tris pH 7.5, 0.1% maltoside, 5 mM DTT and appropriate amounts of glycerol, NS4A peptide, and substrate. Routine assays were 100 μl in volume containing 15% or 50% glycerol, 5.0 μM NS4A peptide and 5.0 μM substrate. Reactions were run at room temperature (˜22° C.) and quenched by the addition of 4 μl of 10% TFA before 10% of the substrate was consumed. Incubation times were 20 minutes for the ester substrate (Peptide Substrate A) and 80 minutes for the P6-P7′ amide substrate (Peptide Substrate B). […] Incubation times were 90 min. Samples, 50 μl, were injected onto an Hewlett Packard 1090 Liquid Chromatograph containing a Dynamax-60A C18 column. The column was eluted with a linear gradient from 10% acetonitrile to 45% acetonitrile in water. All solvents contained 0.1% TFA. A flow rate of 1 ml/min was used. […] The product peaks were detected by fluorescence excitation at 350 nm and emission at 500 nm.
Continuous fluorescence-based HCV protease assay: This asay was a modified version of method of Taliani (Taliani, M.; et al. Anal. Biochem. 240, 60-67, 1996) using Substrate A (Ac-D-E-D(EDANS)-E-E-Abuψ[COO]-A-S-K(DABCYL)—NH2). Assays were run in a 96-well microtiter plates using a Perkin Elmer Luminescence Spectrometer LS50B exciting at 350 nm (10 nm slit) and emitting at 500 nm (10 nm slit). In a typical assay the protease (1-4 nM) was incubated with 10 μM NS4a peptide in 50 mM Tris pH 7.0, 5.0 mM DTT, 50% glycerol, and […] for 15 min. Catalysis was initiated by the addition of Substrate A (final concentration 5.0 μM). Assays were also run under conditions where 15% glycerol, 0.1% Maltoside were substituted for 50% glycerol and 5% CHAPS. Enzymatic activity was monitored by measuring the increase in fluorescence with time using excitation wavelength of 350 nm and an emission wavelength of 500 nm. Both slit widths were 10 nm. Inhibition constants were determined from a nonlinear least squares fit of the data to the equation Vi/Vo=1/(1+[I]/Kiapp). Where Vi is the velocity measured in the presence of inhibitor (inhibitors were introduced with the NS4a peptide) and Vo is the velocity of controls. The thermodynamic Ki was determined from Kiapparent via the relationship for competitive kinetics: Ki=Kiapp/(1+[S]/Km) where [S] is the substrate concentration.
(§2) Footnote a for Table 1 references the assay condiditions: 1) Substrate A=P6-P3′, HCV protease (4.0 nM) was incubated with various concentrations of truncated analogs of Q9692 in 50 mM Tris buffer, pH 7.0, 15% glycerol, 0.1% maltoside, 5 mM DTT and 10 μM NS4A peptide in a 96-well microtiter plate at room temperature. After 15 minutes catalysis was initiated by the addition of Ac-D-E-D(EDANS)-E-E-Abuψ[COO]-A-S-K(DABCYL)—NH2 (final concentration 5.0 μM in a total reaction volume of 200 μl). Enzymatic activity was monitored by measuring the increase in fluorescence with time on a Perkin Elmer LS50B luminescence spectrometer (excitation 350 nm, emission 500 nm, both slits 10 nm). […] Assays were 100 μl in volume, reactions were run at room temperature (˜22 C) for 80 minutes (<10% of the substrate was consumed). The addition of 4 μl of 10% TFA quenched the reactions. Quantitation of hydrolysis products was determined by measuring fluorescent peak areas following HPLC. Products were detected by excitation at 350 nm and measuring emission at 500 nm. Aliquots (50 μl) of quenched enzymatic reactions were injected on an Hewlett Packard 1090 HPLC equipped with a ¼ inch Dynamex 60A C18 column. A linear gradient from 10% acetonitrile:H2O to 45% acetonitrile:H2O was run over a period of 15 min at a flow rate of 1.0 ml/min. All solvents contained 0.1% TFA.

[2] = target: T1, HCV NS3 protease, genotype 1a; format: biochemical; settings: substrate B
Protocol: as §1, §2
Comparison of the effects of Q9692 on the hydrolysis of a P6-P3′ ester substrate (FIG. 2A) and a P6-P7′ substrate (FIG. 2B) and P6-P3′ amide substrate (FIG. 2C) were determined. For substrates A and B1 Concentrations of Q9692 are 0 (circles), 1 μM (squares), 2 μM (diamonds) and 4 μM (triangles). Assay conditions: HCV protease (5 nM) was incubated in 50 mM Tris buffer at pH 7.0, 15% glycerol, 0.1% maltoside, 5 mM DTT, 10 μM NS4A peptide, and specified concentration of substrate. Assays were 100 μl in volume and reactions were run at room temperature (22 C) and quenched by the addition of 4 μl of 10% TFA before 10% of the substrate was consumed. Incubation times were 20 minutes for the ester substrate and 80 minutes for the amide substrate. Hydrolysis products were quantitated by measuring fluorescent peak areas following HPLC and detection by excitation at 350 nm and measuring emission at 500 nm. Aliquots (50 μl) of quenched enzymatic reactions were injected on an Hewlett Packard 1090 HPLC equipped with a ¼ inch Dynamex 60A C18 column.

[3] = target: HCV protease; settings: cited from earlier work
[4] = target: HCV protease (Hepatitis C virus genotype 1b, UniProt P26663); settings: corresponding peptides as substrates; 50 mM Hepes pH 7.5, 1% CHAPS, 15% glycerol, NS4a cofactor peptide 80 μM; read-out: Ki; cited from earlier work
[5] = target: T2, HCV protease (NS3) (Hepatitis C virus genotype 1a, UniProt P26664); format: binding; settings: added to NS3 alone; excitation 280 nm
T2 construct: NS3 protease catalytic domain (amino acids 1 to 192); MGAQH expression leader (5 aa), or alternatively the 15 aa His tag MRGSHHHHHHMGAQH; made in house; host or cells: E. coli BL21 (DE3)
Protocol: Intrinsic fluorescence studies: Assays were conducted in 0.5 ml fluorescent cuvettes (0.4 ml total volume). […] Fluorescence spectra were obtained by exiting at 280 nm (10 nm slit) and scanning the emission profile from 300 to 400 nm (10 nm slit) at 1 nm s^−1.
Fluorescence spectrum of HCV protease (0.45 μM) in 50 mM Tris buffer, pH 7.0, containing 15% glycerol, and 0.10% maltoside were measured over a range of 300-400 nm using an excitation wavelength of 280 nm. Both excitation and emission slit widths were 10 nm and the scan rate was 1.0 nm sec^−1.

Compound	Kd [1] [µM]	(S = P6-P3′) Inhibition(+) / Activation (−) [1]	(S = P6-P7′) Inhibition (+) / Activation (−) [2]	other results
CC(=O)N[C@@H](CC(=O)O)C(=O)N[C@@H](CCC(=O)O)C(=O)N[C@H](C(=O)N[C@@H](CCC(=O)O)C(=O)N[C@@H](CC1CCCCC1)C(N)=O)C(c1ccccc1)c1ccccc1 [Q228, Ac-Asp-Glu-Dpa-Glu-Cha-NH2] (Ac-DE[Dip]E[Cha]-NH2)	25	−	+	
CC(=O)N[C@@H](CC(=O)O)C(=O)N[C@@H](CCC(=O)O)C(=O)N[C@H](C(=O)N[C@@H](CCC(=O)O)C(N)=O)C(c1ccccc1)c1ccccc1 [Q229, Ac-Asp-Glu-Dpa-Glu-NH2] (Ac-DE[Dip]E-NH2)	240	+	+	
CC(=O)N[C@@H](CC(=O)O)C(=O)N[C@@H](CCC(=O)O)C(=O)N[C@H](C(N)=O)C(c1ccccc1)c1ccccc1 [Q230, Ac-Asp-Glu-Dpa-NH2] (Ac-Asp-Glu-[Dip]-NH2)	400	+	+	
CC(=O)N[C@H](C(=O)N[C@@H](CCC(=O)O)C(=O)N[C@@H](CC1CCCCC1)C(N)=O)C(c1ccccc1)c1ccccc1 [Q236, Ac-Dpa-Glu-Cha-NH2] (Ac-[Dip]-Glu-[Cha]-NH2)	66	−	−	
CC(=O)N[C@@H](CCC(=O)O)C(=O)N[C@H](C(=O)N[C@@H](CCC(=O)O)C(=O)N[C@@H](CC1CCCCC1)C(N)=O)C(c1ccccc1)c1ccccc1 [Q240, Ac-Glu-Dpa-Glu-Cha-NH2] (Ac-E[Dip]E[Cha]-NH2)	80	−	−	
CC(=O)N[C@@H](CCC(=O)O)C(=O)N[C@@H](CC1CCCCC1)C(=O)N[C@@H](CS)C(=O)O [Q295, Ac-Glu-Cha-Cys-OH] (Ac-Glu-[Cha]-Cys-OH)	300	+	+	
CC(=O)N[C@H](C(=O)N[C@@H](CCC(=O)O)C(=O)N[C@@H](CC1CCCCC1)C(=O)N[C@@H](CS)C(=O)O)C(c1ccccc1)c1ccccc1 [Q296, Ac-Dpa-Glu-Cha-Cys-OH] (Ac-[Dip]E[Cha]C-OH)	1.5	−	−	
CC(=O)N[C@@H](CCC(=O)O)C(=O)N[C@H](C(=O)N[C@@H](CCC(=O)O)C(=O)N[C@@H](CC1CCCCC1)C(=O)N[C@@H](CS)C(=O)O)C(c1ccccc1)c1ccccc1 [Q297, Ac-Glu-Dpa-Glu-Cha-Cys-OH] (Ac-E[Dip]E[Cha]C-OH)	40	−	+	
C=CCC(NC(=O)[C@H](CC1CCCCC1)NC(=O)[C@H](CCC(=O)O)NC(=O)[C@@H](NC(=O)[C@H](CCC(=O)O)NC(=O)[C@H](CC(=O)O)NC(C)=O)C(c1ccccc1)c1ccccc1)B1OC2CC3CC(C3(C)C)C2(C)O1 (stereo partly drawn) [Q9716, Ac-Asp-Glu-Dpa-Glu-Cha-boroAlg—C10H16] (Ac-DE[Dip]E[Cha]-X1)				Ki [1]: ~0.005 µM
Ac-Asp-(D)Glu-Chg-Val-X-Nva—OH				Ki [3]: 0.028 µM
Ac-EDVW[Abu]C-OH				Ki [4]: 1.4 µM
Asp-Glu-Val-Val-Pro-AlgCF2CF3 (DEVVP-AlgCF2CF3; reading uncertain; also: printed as Asp-Glu-Val-Val-Pro-AlgCF2CF3) [Q9714]				Dixon plots of 1/V versus Q9717 concentration ([1]; 5 μM substrate spanning P6-P3′): parallel lines
DCSTPC [Ac-DCSTPC—OH]				Ki [4]: 180 µM
DEMEEC [Ac-DEMEEC—OH]				Ki [4]: 0.6 µM
KKGSVVIVGRIVLSGKPAIIPKK [NS4a]				increase in intrinsic fluorescence of the protease (NS3) [5]: 25%
